Assay results as given in US11505536B2, “Dihydroorotate dehydrogenase inhibitors” (Janssen Biotech, Inc., priority 2019, dated 2022).

Key:
[1] = molecular target: human DHODH (Homo sapiens (Human), UniProt Q02127); test: DHODH Enzymatic Assay; assay type: biochemical; conditions: purified human DHODH, DCIP absorbance, end-point mode; read-out: hDHODH IC50
Procedure, shortened: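 Purified human DHODH in […] HEPES pH 7.5, 150 mM NaCl, 0.5 mM EDTA, 0.1% Triton X-100; reaction started with substrate mix of 20 mM DHO, 5 mM CoQ6, 1 mM DCIP. End-point read as DCIP reduction (absorbance ~600 nm) after brequinar quench.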

[2] = tested on: MOLM-13 cells (human acute myeloid leukemia cells); test: MOLM-13 Cellular Assay; assay type: cell-based; conditions: Homo sapiens, MOLM-13, 72 h, 72 hours exposure, cell viability by CellTiter-Glo
Procedure, shortened: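 MOLM-13 AML cells, seeded at 5,000/well in RPMI 1640 with 10% FBS, were treated with compounds right after seeding for 72 h at 37 °C, 5% CO2. Viability read by CellTiter-Glo luminescence.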

Chain of human DHODH (Q02127 whole entry): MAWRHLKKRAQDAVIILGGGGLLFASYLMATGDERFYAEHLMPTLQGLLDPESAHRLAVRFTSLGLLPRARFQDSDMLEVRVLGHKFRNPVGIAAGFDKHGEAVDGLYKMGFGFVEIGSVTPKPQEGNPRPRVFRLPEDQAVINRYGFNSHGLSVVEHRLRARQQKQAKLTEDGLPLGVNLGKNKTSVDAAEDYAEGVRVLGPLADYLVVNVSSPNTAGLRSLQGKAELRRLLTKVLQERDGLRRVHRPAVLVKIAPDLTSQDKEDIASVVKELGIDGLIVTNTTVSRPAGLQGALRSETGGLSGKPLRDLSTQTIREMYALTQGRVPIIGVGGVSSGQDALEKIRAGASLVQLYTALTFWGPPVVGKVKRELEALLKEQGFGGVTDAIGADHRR

| IC50 [1] [nM] | IC50 [2] [nM] | Compound |
| --- | --- | --- |
| 3.54 | 0.7 | CCn1c(CO)nn(-c2cc3c(C(C)C)cn([C@@H]4CCCC[C@@H]4C)c(=O)c3cc2F)c1=O [Example 111, 6-(4-Ethyl-3-(hydroxymethyl)-5-oxo-4,5-dihydro-1H-1,2,4-triazol-1-yl)-7-fluoro-4-isopropyl-2-((1R,2S)-2-methylcyclohexyl)isoquinolin-1(2H)-one] |
| 0.226 | 0.3 | C=C(c1cn(-c2ccccc2C)c(=O)c2cc(F)c(-n3nc(CO)n(CC)c3=O)cc12)C(F)(F)F [Example 81, 6-(4-Ethyl-3-(hydroxymethyl)-5-oxo-4,5-dihydro-1H-1,2,4-triazol-1-yl)-7-fluoro-2-(o-tolyl)-4-(3,3,3-trifluoroprop-1-en-2-yl)isoquinolin-1(2H)-one] |
| 3.21 | 3 | CCn1c(CO)nn(-c2ccc3c(=O)n(-c4ccccc4Cl)nc(C(C)C)c3c2)c1=O [Example 17, 2-(2-Chlorophenyl)-6-(4-ethyl-3-(hydroxymethyl)-5-oxo-4,5-dihydro-1H-1,2,4-triazol-1-yl)-4-isopropylphthalazin-1(2H)-one] |
| 1.2 | 0.5 | CCn1c(CO)nn(-c2cc3c(C(C)C(F)(F)F)nn(-c4ccccc4C)c(=O)c3cc2F)c1=O (racemic) [Example 55, Racemic 6-(4-Ethyl-3-(hydroxymethyl)-5-oxo-4,5-dihydro-1H-1,2,4-triazol-1-yl)-7-fluoro-2-(o-tolyl)-4-(1,1,1-trifluoropropan-2-yl)phthalazin-1(2H)-one] |
| 0.433 | 0.4 | CCn1c(CO)nn(-c2cc3c(C(C)C)nn(-c4c(F)cccc4Cl)c(=O)c3cc2F)c1=O [Example 54, 2-(2-Chloro-6-fluorophenyl)-6-(4-ethyl-3-(hydroxymethyl)-5-oxo-4,5-dihydro-1H-1,2,4-triazol-1-yl)-7-fluoro-4-isopropylphthalazin-1(2H)-one] |
| 13 | 40 | CCn1c(CO)nn(-c2cc3c(C(C)C)cn(-c4scnc4C)c(=O)c3cc2F)c1=O [Example 39, 6-(4-Ethyl-3-(hydroxymethyl)-5-oxo-4,5-dihydro-1H-1,2,4-triazol-1-yl)-7-fluoro-4-isopropyl-2-(4-methylthiazol-5-yl)isoquinolin-1(2H)-one] |
| 83.5 | 100 | CCc1nn(-c2cccc(F)c2)c(=O)c2ccc(-n3nc(CO)n(CC)c3=O)cc12 [Example 20, 4-Ethyl-6-(4-ethyl-3-(hydroxymethyl)-5-oxo-4,5-dihydro-1H-1,2,4-triazol-1-yl)-2-(3-fluorophenyl)phthalazin-1(2H)-one] |
| 0.839 | 0.7 | C=C(C)c1cn(-c2c(Cl)cccc2Cl)c(=O)c2ccc(-n3nc(CO)n(CC)c3=O)cc12 [Example 8, 2-(2,6-Dichlorophenyl)-6-(4-ethyl-3-(hydroxymethyl)-5-oxo-4,5-dihydro-1H-1,2,4-triazol-1-yl)-4-(prop-1-en-2-yl)isoquinolin-1(2H)-one] |
| 8.08 | 8 | CCn1c(CO)nn(-c2cc3c(C(C)C)cn(-c4ccncc4C)c(=O)c3cc2F)c1=O [Example 137, 6-(4-Ethyl-3-(hydroxymethyl)-5-oxo-4,5-dihydro-1H-1,2,4-triazol-1-yl)-7-fluoro-4-isopropyl-2-(3-methylpyridin-4-yl)isoquinolin-1(2H)-one] |
| 50.9 | 80 | CCn1c(CO)nn(-c2cc3c(C(C)C)cn(CC4CC4)c(=O)c3cc2F)c1=O [Example 115, 2-(Cyclopropylmethyl)-6-(4-ethyl-3-(hydroxymethyl)-5-oxo-4,5-dihydro-1H-1,2,4-triazol-1-yl)-7-fluoro-4-isopropylisoquinolin-1(2H)-one] |
| 1.88 | 3 | CCn1c(CO)nn(-c2nc3c([C@H](C)C(F)(F)F)cn(-c4ccccc4C)c(=O)c3cc2F)c1=O [Example 37, (S)-2-(4-Ethyl-3-(hydroxymethyl)-5-oxo-4,5-dihydro-1H-1,2,4-triazol-1-yl)-3-fluoro-6-(o-tolyl)-8-(1,1,1-trifluoropropan-2-yl)-1,6-naphthyridin-5(6H)-one] |
